The nature of the data set: Whole brain allantoin levels after subcutaneous allantoin pellets (blood brain barrier crossing). The class given is in vivo, Sprague Dawley rats. Particulars: non-lesioned rats, s.c. allantoin pellets, three days following pellet implantation, relative to control rats. The text has this:
Continuous s.c. delivery of INO, KO and ALL was achieved by implanting matrix-driven pellets into the s.c. space. Animals were anesthetized with isofluorane and prepared for surgery using sterile procedures. A small incision was made posterior to the scapula and the pellet was placed in the subscapular space contralateral to the incision. This placement technique prevents migration of the pellet towards the incision, thereby reducing the incidents of rejection. Finally, the incision was closed using aseptic procedures. To determine the roles of UA and allantoin in inosine-mediated neuroprotection, animals were treated with the urate oxidase inhibitor KO. This approach has been widely used to prevent the enzymatic metabolism of UA to allantoin in other rodent models of disease.
To measure brain allantoin levels, whole brains were freeze dried, ground into a fine powder and homogenized in 0.8 ml of 2.5% trichloroacetic acid (TCA) per 100 mg. The homogenate was centrifuged at 18,000 rpm for 15 min. […] The remaining supernatant was then analyzed for allantoin.
To determine the ability of allantoin to cross the intact blood brain barrier (BBB), non-lesioned rats received either allantoin pellets or sham implantation. […] Whole brain levels of allantoin were determined enzymatically.

“Also recorded” adds a separate entry of the source.

Turning to `NC(=O)NC1NC(=O)NC1=O` (stereo not shown) [allantoin], the “whole brain allantoin levels” value is given as “approximately double; also recorded: significant increase”.

These data come from patent publication US20120128654A1, “Allantoin Administration for the Treatment of Neurodegenerative Disease and Neurotrauma” (UNIVERSITY OF CINCINNATI, priority 2009, published 2012).
